Laboratory results: ChEMBL document CHEMBL1201862, “PubChem BioAssay data set” (2004)
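Step 1: Grow cells in 96-well plates. Step 2: Expose to compound for 48 hours at 5 concentrations. Step 3: Interpolate endpoints linearly; if unreached, use highest concentration. Abbreviation: GI50, concentration required for 50% inhibition of growth.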 The source made the active and inactive calls. Cut-off read from the data, not from the text of the source: active = GI50 up to about 1.1 µM and inactive = higher.

Columns and labels:
Assay in all cases: growth of human tumour cells (NCI), 48 h
786-0 = system: 786-0
A498 = system: A498
A549 = system: A549
ACHN = system: ACHN
BT-549 = system: BT-549
CAKI-1 = system: CAKI-1
CCRF-CEM = system: CCRF-CEM
COLO 205 = system: COLO 205
DU-145 = system: DU-145
EKVX = system: EKVX
HCC 2998 = system: HCC 2998
HCT-116 = system: HCT-116
HCT-15 = system: HCT-15
HL-60 = system: HL-60
HOP-62 = system: HOP-62
HOP-92 = system: HOP-92
HT-29 = system: HT-29
Hs-578T = system: Hs-578T
IGROV-1 = system: IGROV-1
K562 = system: K562
KM12 = system: KM12
LOX IMVI = system: LOX IMVI
M14 = system: M14
MCF7 = system: MCF7
MDA-MB-231 = system: MDA-MB-231
MDA-MB-435 = system: MDA-MB-435
MDA-N = system: MDA-N
MOLT-4 = system: MOLT-4
NCI-H226 = system: NCI-H226
NCI-H23 = system: NCI-H23
NCI-H460 = system: NCI-H460
NCI/ADR-RES = system: NCI/ADR-RES
OVCAR-3 = system: OVCAR-3
OVCAR-4 = system: OVCAR-4
OVCAR-5 = system: OVCAR-5
OVCAR-8 = system: OVCAR-8
PC-3 = system: PC-3
RPMI-8226 = system: RPMI-8226
RXF 393 = system: RXF 393
SF-268 = system: SF-268
SF-295 = system: SF-295
SF-539 = system: SF-539
SK-MEL-28 = system: SK-MEL-28
SK-MEL-2 = system: SK-MEL-2
SK-OV-3 = system: SK-OV-3
SN12C = system: SN12C
SNB-19 = system: SNB-19
SNB-75 = system: SNB-75
SR = system: SR
SW-620 = system: SW-620
T47D = system: T47D
TK-10 = system: TK-10
U-251 = system: U-251
UACC-257 = system: UACC-257
UACC-62 = system: UACC-62
UO-31 = system: UO-31
Malme-3M = system: Malme-3M
NCI-H522 = system: NCI-H522
SK-MEL-5 = system: SK-MEL-5

Measured: GI50

N#CC(C#N)=C1CCCS(=O)(=O)c2ccccc21
> 100 µM: HCT-15
inactive: 786-0 > 100 µM | A498 56.4 µM | A549 > 100 µM | ACHN > 100 µM | BT-549 > 100 µM | CAKI-1 > 100 µM | CCRF-CEM > 100 µM | COLO 205 > 100 µM | DU-145 > 100 µM | EKVX > 100 µM | HCC 2998 > 100 µM | HCT-116 > 100 µM | HL-60 > 100 µM | HOP-62 > 100 µM | HOP-92 > 100 µM | HT-29 > 100 µM | Hs-578T > 100 µM | IGROV-1 > 100 µM | K562 > 100 µM | KM12 > 100 µM | LOX IMVI > 100 µM | M14 > 100 µM | MCF7 > 100 µM | MDA-MB-231 > 100 µM | MDA-MB-435 > 100 µM | MDA-N > 100 µM | MOLT-4 > 100 µM | NCI-H226 > 100 µM | NCI-H23 > 100 µM | NCI-H460 > 100 µM | NCI/ADR-RES > 100 µM | OVCAR-3 > 100 µM | OVCAR-4 > 100 µM | OVCAR-5 > 100 µM | OVCAR-8 > 100 µM | PC-3 > 100 µM | RPMI-8226 > 100 µM | RXF 393 > 100 µM | SF-268 > 100 µM | SF-295 > 100 µM | SF-539 > 100 µM | SK-MEL-28 > 100 µM | SK-MEL-2 > 100 µM | SK-OV-3 > 100 µM | SN12C > 100 µM | SNB-19 > 100 µM | SNB-75 > 100 µM | SR > 100 µM | SW-620 > 100 µM | T47D > 100 µM | TK-10 > 100 µM | U-251 > 100 µM | UACC-257 > 100 µM | UACC-62 > 100 µM | UO-31 > 100 µM

COc1ccc(CN(Cc2ccc(OC)cc2)C(=O)CC2(O)C=CCC2)cc1 (stereo not drawn)
78.7 µM: HCT-15
inactive: 786-0 > 100 µM | A498 > 100 µM | A549 46.2 µM | ACHN > 100 µM | BT-549 > 100 µM | CAKI-1 46.7 µM | CCRF-CEM 47.6 µM | COLO 205 40 µM | DU-145 > 100 µM | EKVX 46.1 µM | HCC 2998 69.2 µM | HCT-116 55.3 µM | HL-60 34.8 µM | HOP-62 > 100 µM | HOP-92 > 100 µM | HT-29 66.7 µM | Hs-578T 48.4 µM | IGROV-1 > 100 µM | K562 34 µM | KM12 45.9 µM | LOX IMVI > 100 µM | M14 > 100 µM | MCF7 43.9 µM | MDA-MB-231 > 100 µM | MDA-MB-435 71.4 µM | MDA-N 72.9 µM | MOLT-4 31.6 µM | Malme-3M > 100 µM | NCI-H226 > 100 µM | NCI-H23 > 100 µM | NCI-H460 67.5 µM | NCI-H522 32.7 µM | NCI/ADR-RES 43.1 µM | OVCAR-3 98.2 µM | OVCAR-4 80 µM | OVCAR-5 > 100 µM | OVCAR-8 37.5 µM | PC-3 28 µM | RPMI-8226 31.6 µM | SF-295 56.9 µM | SF-539 > 100 µM | SK-MEL-28 > 100 µM | SK-MEL-2 56.6 µM | SK-MEL-5 32.9 µM | SK-OV-3 > 100 µM | SN12C > 100 µM | SNB-19 71.9 µM | SNB-75 81.8 µM | SR 36.1 µM | SW-620 > 100 µM | T47D 39.4 µM | TK-10 > 100 µM | U-251 90.8 µM | UACC-257 43.4 µM | UACC-62 57.7 µM | UO-31 44.9 µM
